Legend:
human FPR2 = human FPR2 (Homo sapiens (Human), UniProt P25090); assay: FPR2 cyclic adenosine monophosphate (cAMP) assay; assay type: cell-based; conditions: CHO cells overexpressing human FPR2; forskolin 5 µM; inhibition of cAMP production; read-out: hFPR2 cAMP2 EC50
Summary of the method: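 CHO cells overexpressing human FPR2 (2,000/well) incubated 30 min at room temperature with compound (0.020 nM–100 µM, 1% DMSO), 5 µM forskolin and 200 µM IBMX.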

human FPR1 = human FPR1 (Homo sapiens (Human), UniProt P21462); assay: FPR1 cyclic adenosine monophosphate (cAMP) assay; assay type: cell-based; conditions: CHO cells overexpressing human FPR1; forskolin 10 µM; inhibition of cAMP production; read-out: hFPR1 cAMP EC50
Chain of human FPR1 (P21462 whole entry): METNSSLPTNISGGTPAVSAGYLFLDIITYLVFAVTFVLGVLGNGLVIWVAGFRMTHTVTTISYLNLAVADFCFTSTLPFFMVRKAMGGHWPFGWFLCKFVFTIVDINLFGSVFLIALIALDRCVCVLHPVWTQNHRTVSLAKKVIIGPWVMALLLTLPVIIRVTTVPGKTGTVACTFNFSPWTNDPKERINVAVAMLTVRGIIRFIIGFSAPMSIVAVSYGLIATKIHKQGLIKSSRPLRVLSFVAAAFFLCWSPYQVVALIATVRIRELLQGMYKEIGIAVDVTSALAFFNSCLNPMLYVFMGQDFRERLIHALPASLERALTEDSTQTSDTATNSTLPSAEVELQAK
Summary of the method: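 CHO cells overexpressing human FPR1 (4,000 cells/well) stimulated with 10 µM forskolin plus 200 µM IBMX in the presence of compound (0.020 nM–100 µM, 1% DMSO), 30 min at room temperature. Intracellular cAMP measured by HTRF. Inhibition of cAMP production fitted to a 4-parameter logistic equation.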

Chain of human FPR2 (P25090 whole entry): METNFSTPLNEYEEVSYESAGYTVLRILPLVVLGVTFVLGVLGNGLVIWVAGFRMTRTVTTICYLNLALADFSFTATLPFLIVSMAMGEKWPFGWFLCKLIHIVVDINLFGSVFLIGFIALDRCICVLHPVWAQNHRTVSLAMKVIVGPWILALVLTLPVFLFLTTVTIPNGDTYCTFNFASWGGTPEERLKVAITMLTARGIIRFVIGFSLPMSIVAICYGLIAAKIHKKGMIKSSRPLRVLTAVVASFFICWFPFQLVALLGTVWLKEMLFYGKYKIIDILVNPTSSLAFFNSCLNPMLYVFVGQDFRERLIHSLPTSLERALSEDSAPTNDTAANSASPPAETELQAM

SMILES	EC50 (human FPR2) [nM]	EC50 (human FPR1) [nM]
COc1cc(C2CCN(CC(C)(C)O)CC2)nc(N2C[C@@H](c3c(F)cc(OC)cc3F)[C@H](NC(=O)c3ccc(OC(F)F)cc3)C2=O)c1 [Example 720]	3.9	> 5000
CCn1c2c(cc(N3C[C@@H](c4c(F)cc(OC)cc4F)[C@H](NC(=O)c4ccc(OC(F)F)cc4)C3=O)c1=O)CCCC2 [Example 460]	1.4	1
COc1cc(F)c([C@@H]2CN(c3cccc(N4CCN(C)CC4)n3)C(=O)[C@H]2NC(=O)c2ccc(OC(F)F)cc2)c(F)c1 [Example 566]	1.1	990
COc1cc(F)c([C@@H]2CN(c3ccc(C)n(C)c3=O)C(=O)[C@H]2NC(=O)c2ccc(Cl)cc2)c(F)c1 [Example 140]	3.5	610
COCCn1ccc(C)c(N2C[C@@H](c3ccc(OC)cc3)[C@H](NC(=O)c3ccc(OC(F)(F)F)cc3)C2=O)c1=O [Example 178]	4.7	0.1
COc1ccc([C@@H]2CN(c3cccn(CCC(F)(F)F)c3=O)C(=O)[C@H]2NC(=O)c2ccc(OC(F)(F)F)cc2)c(F)c1 [Example 75]	2	2.8
COc1cc(F)c([C@@H]2CN(c3c(C)ccn(CC4CNC(=O)O4)c3=O)C(=O)[C@H]2NC(=O)c2ccc(OC(F)F)cc2)c(F)c1 (some centres unmarked) [Example 619]	9.4	64
COc1ccc([C@@H]2CN(c3c(C)ccn(CCC(F)(F)F)c3=O)C(=O)[C@H]2NC(=O)c2ccc(OC(F)F)cc2)cc1 [Example 387]	2.2	1
COc1cc(F)c([C@@H]2CN(c3cccc(N4C[C@@H](C)N(C)[C@@H](C)C4)n3)C(=O)[C@H]2NC(=O)c2ccc(OC(F)F)cc2)c(F)c1 [Example 48]	1.1	940
COc1cc(F)c([C@@H]2CN(c3nc(N4CCN(C)CC4)ccc3F)C(=O)[C@H]2NC(=O)c2ccc(OC(F)F)cc2)c(F)c1 [Example 54]	1.4	820
COc1cc(F)c([C@@H]2CN(c3cccn(CC(C)O)c3=O)C(=O)[C@H]2NC(=O)c2ccc(OC(F)F)cc2)c(F)c1 (some centres unmarked) [Example 104]	2.9	120
COc1cc(F)c([C@@H]2CN(c3ccc(=O)n(C)c3)C(=O)[C@H]2NC(=O)c2ccc(OC(F)(F)F)cc2)c(F)c1 [Example 26]	35	27
COc1cc(F)c([C@@H]2CN(c3cccn(CC4CC(F)(F)C4)c3=O)C(=O)[C@H]2NC(=O)c2ccc(OC(F)F)cc2)c(F)c1 [Example 96]	2.7	46
COc1cc(F)c([C@H]2[C@H](NC(=O)c3ccc(OC(F)F)cc3)C(=O)N(c3cccc(N4C[C@@H]5C[C@H]4CN5C)n3)[C@H]2C)c(F)c1 [Example 526]	1.1	2300
COc1cc(F)c([C@@H]2CN(c3cccn(C4COC4)c3=O)C(=O)[C@H]2NC(=O)c2ccc(OC(F)F)cc2)c(F)c1 [Example 304]	9.6	90
COc1cc(F)c([C@@H]2CN(c3nccc(NCCO)c3C(F)(F)F)C(=O)[C@H]2NC(=O)c2ccc(Cl)cc2)c(F)c1 [Example 419]	4.8	110
COc1cc(F)c([C@@H]2CN(c3ncn(CC(F)F)n3)C(=O)[C@H]2NC(=O)c2ccc(Cl)cc2)c(F)c1 [Example 541]	20	810
COc1cc(F)c([C@@H]2CN(c3cccnc3P(C)(C)=O)C(=O)[C@H]2NC(=O)c2ccc(OC(F)F)cc2)c(F)c1 [Example 30]	10	750
COc1cc(F)c([C@@H]2CN(c3cccn(CC(OC)C(F)(F)F)c3=O)C(=O)[C@H]2NC(=O)c2ccc(OC(F)F)cc2)c(F)c1 (some centres unmarked) [Example 186]	4.9	3
COCC(CO)n1ccc(C)c(N2C[C@@H](c3c(F)cc(OC)cc3F)[C@H](NC(=O)c3ccc(OC(F)F)cc3)C2=O)c1=O (some centres unmarked) [Example 112]	3	2.8
COc1cc(F)c([C@@H]2CN(c3c(C)ccn(C4CCNC4)c3=O)C(=O)[C@H]2NC(=O)c2ccc(OC(F)F)cc2)c(F)c1 (some centres unmarked) [Example 601]	2	170
COc1cc(F)c([C@@H]2CN(c3c(C)ccn(C4CCS(=O)(=O)CC4)c3=O)C(=O)[C@H]2NC(=O)c2ccc(OC(F)F)cc2)c(F)c1 [Example 626]	0.7	13
COc1cc(F)c([C@H]2[C@H](NC(=O)c3ccc(OC(F)F)cc3)C(=O)N(c3cccc(C4CCCN(CCO)C4)n3)[C@H]2C)c(F)c1 (some centres unmarked) [Example 515]	2.1	2200
COc1cc(F)c([C@H]2[C@H](NC(=O)c3ccc(OC(F)F)cc3)C(=O)N(c3cccc(N4CC[C@@H](O)C4)n3)[C@H]2C)c(F)c1 [Example 561]	4.3	170
COc1cc(F)c([C@@H]2CN(c3nccc(N4C[C@@H]5C[C@H]4CN5C)c3C#N)C(=O)[C@H]2NC(=O)c2ccc(Cl)cc2)c(F)c1 [Example 160]	4.1	1100

SMILES	EC50 (human FPR2) [nM]	EC50 (human FPR1) [nM]
COc1cc(F)c([C@@H]2CN(c3c(C)ccn(CC#N)c3=O)C(=O)[C@H]2NC(=O)c2ccc(OC(F)(F)F)cc2)c(F)c1 [Example 455]	2.9	10
COc1cc(F)c([C@@H]2CN(c3nc(Cl)ccc3C#N)C(=O)[C@H]2NC(=O)c2ccc(OC(F)F)cc2)c(F)c1 [Example 6]	5.1	650
COc1cc(F)c([C@@H]2CN(c3ccnn(CC(F)F)c3=O)C(=O)[C@H]2NC(=O)c2ccc(OC(F)(F)F)cc2)c(F)c1 [Example 473]	1.8	2
COc1cc(F)c([C@@H]2CN(c3nc(C4CCOCC4)ccc3N(C)C)C(=O)[C@H]2NC(=O)c2ccc(OC(F)F)cc2)c(F)c1 [Example 343]	33	120
O=C(N[C@@H]1C(=O)N(c2cccn(CCC(F)(F)F)c2=O)C[C@H]1c1ccc(Cl)cc1)c1ccc(OC(F)(F)F)cc1 [Example 73]	1.9	3.2
COc1ccc([C@@H]2CN(c3c(C)ccn(CCO)c3=O)C(=O)[C@H]2NC(=O)c2ccc(OC(F)(F)F)cc2)c(F)c1 [Example 636]	1.6	3.2
COc1cc(F)c([C@@H]2CN(c3cn(C)nc3OC)C(=O)[C@H]2NC(=O)c2ccc(OC(F)F)cc2)c(F)c1 [Example 630]	5.2	1100
COc1ccc([C@@H]2CN(c3cccn(CC(OC)C(F)(F)F)c3=O)C(=O)[C@H]2NC(=O)c2ccc(Cl)cc2)cc1 (some centres unmarked) [Example 393]	2.4	2
COc1cc(F)c([C@@H]2CN(c3c(Cl)ccn(C)c3=O)C(=O)[C@H]2NC(=O)c2ccc(Cl)cc2)c(F)c1 [Example 196]	5.2	160
COc1cc(C2CCN(C)CC2)nc(N2C(=O)[C@@H](NC(=O)c3ccc(OC(F)(F)F)cc3)[C@H](c3c(F)cc(OC)cc3F)[C@@H]2C)c1 [Example 565]	8.2	720
COc1cc(F)c([C@@H]2CN(c3c(C)ccn(C4CCNC4)c3=O)C(=O)[C@H]2NC(=O)c2ccc(OC(F)(F)F)cc2)c(F)c1 (some centres unmarked) [Example 602]	3.8	88
COc1cc(F)c([C@H]2[C@H](NC(=O)c3ccc(OC(F)F)cc3)C(=O)N(c3ncccc3OC)[C@H]2C)c(F)c1 [Example 77]	2	170
COc1cc(F)c([C@@H]2CN(C3CCC3)C(=O)[C@H]2NC(=O)c2ccc(OC(F)(F)F)cc2)c(F)c1 [Example 335]	15	450
COc1cc(F)c([C@@H]2CN(c3cccn(C(CO)C(F)(F)F)c3=O)C(=O)[C@H]2NC(=O)c2ccc(OC(F)F)cc2)c(F)c1 (some centres unmarked) [Example 583]	3.8	57
COc1ccc([C@@H]2CN(c3c(C)ccn(CCO)c3=O)C(=O)[C@H]2NC(=O)c2ccc(OC(F)F)cc2)c(F)c1 [Example 367]	1.2	3
COc1cc(F)c([C@@H]2CN(c3cc(NC(C)=O)cn(C)c3=O)C(=O)[C@H]2NC(=O)c2ccc(OC(F)F)cc2)c(F)c1 [Example 323]	11	750
COc1cc(F)c([C@@H]2CN(c3c(C)ccn(C4CC4)c3=O)C(=O)[C@H]2NC(=O)c2ccc(OC(F)F)cc2)c(F)c1 [Example 351]	8	5
COc1ccc([C@@H]2CN(c3cccn(CC(O)C(F)(F)F)c3=O)C(=O)[C@H]2NC(=O)c2ccc(OC(F)(F)F)cc2)cc1 (some centres unmarked) [Example 354]	3.2	7
COc1cc(F)c([C@@H]2CN(c3cccn(CC(OC)C(F)(F)F)c3=O)C(=O)[C@H]2NC(=O)c2ccc(Cl)cc2)c(F)c1 (some centres unmarked) [Example 417]	2.9	17
COc1cc(F)c([C@@H]2CN(c3c(C)ccn(CCC(F)(F)F)c3=O)C(=O)[C@H]2NC(=O)c2ccc(Cl)cc2)c(F)c1 [Example 430]	3.3	5
COc1cc(F)c([C@@H]2CN(c3c(C)ccn(C4CC4)c3=O)C(=O)[C@H]2NC(=O)c2ccc(OC(F)(F)F)cc2)c(F)c1 [Example 352]	4.8	3
COc1cc(F)c([C@@H]2CN(c3cccn(CC(O)CO)c3=O)C(=O)[C@H]2NC(=O)c2ccc(OC(F)(F)F)cc2)c(F)c1 (some centres unmarked) [Example 679]	6	28
COc1cc(F)c([C@@H]2CN(c3cccc(N4CCOCC4)n3)C(=O)[C@H]2NC(=O)c2ccc(OC(F)F)cc2)c(F)c1 [Example 580]	3.6	740
COc1cc(F)c([C@@H]2CN(c3cncn(CC(O)C(F)(F)F)c3=O)C(=O)[C@H]2NC(=O)c2ccc(Cl)cc2)c(F)c1 (some centres unmarked) [Example 486]	4.3	36
